{"source": "paper PMC3503319", "about": "(Biochemistry, 2010)", "biological_target": "B. subtilis DAPAS (Bs-DAPAS) (Bacillus subtilis, UniProt P53555)", "sequence (P53555 whole entry, looked up)": "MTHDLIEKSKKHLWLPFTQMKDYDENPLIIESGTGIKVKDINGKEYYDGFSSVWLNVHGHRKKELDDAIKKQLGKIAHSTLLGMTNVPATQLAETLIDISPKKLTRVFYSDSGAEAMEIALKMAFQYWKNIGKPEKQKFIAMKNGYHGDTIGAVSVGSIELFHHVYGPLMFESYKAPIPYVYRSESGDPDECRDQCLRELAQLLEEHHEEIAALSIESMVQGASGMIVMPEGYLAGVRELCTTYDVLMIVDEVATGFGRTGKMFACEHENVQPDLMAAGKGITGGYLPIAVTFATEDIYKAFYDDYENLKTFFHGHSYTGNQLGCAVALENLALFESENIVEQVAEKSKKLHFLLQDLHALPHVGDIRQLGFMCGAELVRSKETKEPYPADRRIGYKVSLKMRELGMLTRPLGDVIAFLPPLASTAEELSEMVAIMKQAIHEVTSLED", "assay": "X-ray crystal structure, […] Å", "type": "binding", "details": "active site"}
{"smiles": "Cc1ncc(COP(=O)(O)O)c(C=O)c1O", "note": "[PLP]", "values": [{"measurement": "X-ray crystal structure, 1.9 Å (cocrystallization, 1 mM PLP)", "value": "the crystal structure of the B. subtilis DAPAS apoprotein, its PLP-bound complex"}]}
